Measured values as given in BindingDB's records for PubMed 2338642 (Marion Merrell Dow, 1990).
Where “and” joins values, the source holds several entries; their conditions need not be identical. Equal values may be shown once.

Molecular target: Voltage-dependent L-type calcium channel subunit alpha-1C (Rattus norvegicus, UniProt P22002)
Sequence (P22002 whole entry): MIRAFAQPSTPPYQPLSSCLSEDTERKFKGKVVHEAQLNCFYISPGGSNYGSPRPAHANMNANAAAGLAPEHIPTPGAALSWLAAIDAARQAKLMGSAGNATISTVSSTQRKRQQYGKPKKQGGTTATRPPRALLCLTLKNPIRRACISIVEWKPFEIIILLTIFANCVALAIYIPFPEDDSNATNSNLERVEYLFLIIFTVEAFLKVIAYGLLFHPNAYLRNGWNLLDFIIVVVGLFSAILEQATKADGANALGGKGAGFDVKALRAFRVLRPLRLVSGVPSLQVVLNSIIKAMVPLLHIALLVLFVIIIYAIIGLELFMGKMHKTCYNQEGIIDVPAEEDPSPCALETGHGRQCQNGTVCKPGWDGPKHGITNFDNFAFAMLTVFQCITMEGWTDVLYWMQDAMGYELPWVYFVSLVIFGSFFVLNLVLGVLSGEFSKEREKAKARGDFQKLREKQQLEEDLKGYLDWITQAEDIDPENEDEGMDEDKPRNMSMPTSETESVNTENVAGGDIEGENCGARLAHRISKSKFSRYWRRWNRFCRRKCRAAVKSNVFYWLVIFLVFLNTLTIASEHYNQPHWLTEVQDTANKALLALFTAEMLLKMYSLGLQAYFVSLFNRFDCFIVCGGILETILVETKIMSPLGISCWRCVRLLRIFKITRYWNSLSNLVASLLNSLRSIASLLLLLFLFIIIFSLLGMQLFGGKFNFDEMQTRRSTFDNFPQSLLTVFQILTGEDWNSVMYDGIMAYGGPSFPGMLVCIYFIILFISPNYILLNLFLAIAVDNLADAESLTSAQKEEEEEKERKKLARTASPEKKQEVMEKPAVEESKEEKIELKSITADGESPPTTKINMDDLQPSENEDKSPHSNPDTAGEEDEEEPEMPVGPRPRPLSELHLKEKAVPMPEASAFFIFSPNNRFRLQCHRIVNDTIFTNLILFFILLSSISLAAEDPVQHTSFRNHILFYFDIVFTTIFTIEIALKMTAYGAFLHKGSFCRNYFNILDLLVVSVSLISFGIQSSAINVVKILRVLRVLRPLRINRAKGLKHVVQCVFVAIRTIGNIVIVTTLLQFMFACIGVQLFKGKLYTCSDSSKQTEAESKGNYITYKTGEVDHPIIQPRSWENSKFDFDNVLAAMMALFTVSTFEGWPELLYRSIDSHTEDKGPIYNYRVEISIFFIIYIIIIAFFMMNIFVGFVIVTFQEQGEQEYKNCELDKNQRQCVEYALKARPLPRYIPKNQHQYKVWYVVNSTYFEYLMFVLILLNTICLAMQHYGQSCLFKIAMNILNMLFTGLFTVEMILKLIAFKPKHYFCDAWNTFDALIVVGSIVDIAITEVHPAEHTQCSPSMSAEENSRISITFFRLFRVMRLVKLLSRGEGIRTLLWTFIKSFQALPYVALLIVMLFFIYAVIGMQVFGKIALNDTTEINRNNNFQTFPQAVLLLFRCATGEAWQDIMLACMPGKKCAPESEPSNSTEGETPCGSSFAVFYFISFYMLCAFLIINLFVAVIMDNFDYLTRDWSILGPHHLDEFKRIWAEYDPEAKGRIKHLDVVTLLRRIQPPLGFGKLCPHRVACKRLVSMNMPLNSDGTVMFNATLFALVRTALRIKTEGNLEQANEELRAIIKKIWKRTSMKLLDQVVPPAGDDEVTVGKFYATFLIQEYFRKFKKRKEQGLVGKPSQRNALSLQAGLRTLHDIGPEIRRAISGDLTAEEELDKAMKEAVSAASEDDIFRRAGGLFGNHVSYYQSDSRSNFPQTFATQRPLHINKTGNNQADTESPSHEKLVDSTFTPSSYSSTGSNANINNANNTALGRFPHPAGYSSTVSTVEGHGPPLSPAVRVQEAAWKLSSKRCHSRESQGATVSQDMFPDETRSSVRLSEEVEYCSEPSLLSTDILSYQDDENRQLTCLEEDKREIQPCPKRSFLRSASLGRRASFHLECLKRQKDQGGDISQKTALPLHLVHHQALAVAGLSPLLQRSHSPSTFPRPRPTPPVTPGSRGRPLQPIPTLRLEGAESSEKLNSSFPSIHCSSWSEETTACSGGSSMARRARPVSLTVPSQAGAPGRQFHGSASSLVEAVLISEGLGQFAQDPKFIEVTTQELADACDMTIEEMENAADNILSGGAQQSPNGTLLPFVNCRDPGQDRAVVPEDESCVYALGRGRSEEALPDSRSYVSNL

| Compound | Ki |
| --- | --- |
| COc1ccc([C@H]2Sc3cc(Cl)ccc3N(CCN(C)C)C(=O)[C@H]2OC(C)=O)cc1 [l-TA-3090] | > 10 µM |
| COc1cc2nc(N3CCN(C(=O)c4ccco4)CC3)nc(N)c2cc1OC [[3H]-Minipress] | 6 µM and > 10 µM |
| COc1ccc([C@@H]2Sc3cc(Cl)ccc3N(CCN(C)C)C(=O)[C@@H]2OC(C)=O)cc1 [CAS_96128-92-6] | > 10 µM |
